According to patent US11179329B2, “Therapeutical use of H3-ligands” (BIOPROJET Pharma, priority 2017, dated 2021):
Read-outs that look alike come from different tables or passages of the source.

Key:
[1] = test system: H3 receptor; assay: H3R occupancy in brain by PET imaging with [11C]GSK189254 in healthy volunteers; format: in vivo; conditions: human
Method: The process of imaging requires the injection of a positron-emitting radiotracer that binds to the receptor followed by the measurement of this binding using the PET scanner.
This method allows to predict the therapeutic dose of a new H3 receptor inverse agonist/antagonist in two steps: 1/the degree of receptor occupancy associated with the dose ensuring therapeutic efficacy of a known drug A is determined, 2/the dose of the new drug B ensuring the same receptor occupancy as A at therapeutic dose is evaluated.
This strategy was applied by comparing H3R occupancy in healthy volunteers receiving pitolisant, an approved and marketed H3R inverse agonist, at its oral maximal therapeutic dose of 40 mg to occupancy by Compound (A) given at several dosages.

[2] = PK results in human, Compound (A) given orally once-a-day; format: in vivo; conditions: for Cmax: serum, po, 90 ug
[3] = as above; format: in vivo; conditions: for Cmax: po, 60 ug
Method: Steady state seems to be attained after 7 to 8 days of treatment for the 60 μg dose.

[4] = test system: vigilance; assay: Activity on vigilance in human; format: in vivo
[5] = Comparative pharmacokinetic data in mice (plasma and brain); conditions: male swiss mice; for AUC brain / AUC plasma: normalized at 1 mg of base/kg, 24 hours sampling
Method: (§1) Compounds were administered to male swiss mice at a dose close to 1 mg of base/kg.

[6] = Solid-state stability / hygroscopicity of the dihydrochloride forms; format: physicochemical
Method: The tetrahydrate of compound (A) is stable for relative humidity ranging from at least 30% to 70% which is an improved property as compared to the hygroscopic nature of the previously described dihydrochloride. The tetrahydrate of compound (A) is also stable for temperatures ranging from 20° C. to 40° C.

[7] = mouse, in vivo
Method: as §1

[8] = in vivo; cited from earlier work
[9] = biological target: histamine H3 receptor (Homo sapiens, UniProt Q9Y5N1); conditions: cited from earlier work
Chain of histamine H3 receptor (Q9Y5N1 whole entry, species assumed): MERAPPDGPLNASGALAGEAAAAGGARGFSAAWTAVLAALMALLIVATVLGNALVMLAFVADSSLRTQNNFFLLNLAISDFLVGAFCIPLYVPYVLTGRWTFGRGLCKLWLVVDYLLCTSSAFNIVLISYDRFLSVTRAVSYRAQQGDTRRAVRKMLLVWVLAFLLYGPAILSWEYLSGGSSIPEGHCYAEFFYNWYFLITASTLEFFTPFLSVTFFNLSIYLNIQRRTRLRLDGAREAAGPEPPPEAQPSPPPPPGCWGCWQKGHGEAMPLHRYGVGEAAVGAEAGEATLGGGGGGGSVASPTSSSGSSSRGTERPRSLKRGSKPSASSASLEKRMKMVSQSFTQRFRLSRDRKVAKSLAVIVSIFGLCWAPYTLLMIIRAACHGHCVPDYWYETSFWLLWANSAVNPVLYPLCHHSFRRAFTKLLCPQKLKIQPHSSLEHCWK

Row | Compound | ratio of plasma AUC over the AUC of the dihydrochloride tetrahydrate [5] | AUC brain [5] [ng·h/g] | AUC plasma [5] [ng·h/mL] | ratio of plasma AUC over the AUC of the dihydrochloride tetrahydrate [7] | other results
1 | C[C@H]1CCCN(CCCOc2ccc(-c3cc[n+]([O-])cc3)cc2)C1 [Compound (A), (3S)-4-{4-[3-(3-methylpiperidin-1-yl)propoxy]phenyl}pyridine 1-oxide] |  |  |  |  | Percent H3R occupancy ± SD At through (24 h) ([1]; 30 μg once): −46.50 ± 12.71%; potency relative to the marketed drug pitolisant ([1]; doses of equal H3R occupancy): 1,000 fold; decrease of total body clearance (Clss/F) after repeated dosing ([2]; 90 μg): 74%; higher AUC0-24 h after repeated administration (% accumulation) ([2]; 90 μg): 113%; higher Cmax after repeated administration (% accumulation) ([2]; 90 μg): 101%; Cmax ([2]; oral 90 μg once-a-day, after repeated dose): 0.344 ng/mL; Cmax ([2]; oral 90 μg, after a single dose): 0.171 ng/mL; dose proportionality of serum exposure (mean Cmax and AUC0-24 h dose normalized ratios) ([3]; human volunteers, between 60 and 90 μg o.d., Day 1 and Day 10): tendency to increase more than dose-proportionally; decrease of total body clearance (Clss/F) after repeated dosing ([3]; human, 60 μg): 65%; higher AUC0-24 h after repeated dosing (Day 10) than after a single dose (Day 1) ([3]; human, 60 μg): 73%; higher Cmax after repeated dosing (Day 10) than after a single dose (Day 1) ([3]; human, 60 μg): 42%; Cmax ([3]; human, serum, human, oral 60 μg once-a-day, after repeated dose): 0.172 ng/mL; Cmax ([3]; human, serum, human, oral 60 μg, after a single dose): 0.121 ng/mL; half-life ([3]; serum, oral, human, determined at Day 10 after multiple administrations, read-out: mean t1/2 (converted)): ~33 h; activity on vigilance ([4]; 30 μg daily, when going to bed at night): delay in falling asleep; effect of repeated treatment on sleep ([4]; 90 μg once-a-day for 10 days): some insomnia
2 | C[C@H]1CCCN(CCCOc2ccc(-c3cc[n+]([O-])cc3)cc2)C1.Cl.Cl.O.O.O.O [Example 4, (3S)-4-{4-[3-(3-methylpiperidin-1-yl)propoxy]phenyl}pyridine 1-oxide dihydrochloride tetrahydrate] | 1.0 | 1040 | 619 |  | stability (general) [6]: very stable; stability against relative humidity ([6]; relative humidity ranging from at least 30% to 70%): stable; stability against temperature ([6]; temperatures ranging from 20° C. to 40° C.): stable
3 | C[C@H]1CCCN(CCCOc2ccc(-c3cc[n+]([O-])cc3)cc2)C1 [Example 5, (3S)-4-{4-[3-(3-methylpiperidin-1-yl)propoxy]phenyl}pyridine 1-oxide base] | 1.2 | 860 | 769 |  | 
4 | C[C@H]1CCCN(CCCOc2ccc(-c3cc[n+]([O-])cc3)cc2)C1.O=C(O)C(=O)O [Example 6, (3S)-4-{4-[3-(3-methylpiperidin-1-yl)propoxy]phenyl}pyridine 1-oxide oxalate] | 0.9 | 923 | 562 |  | 
5 | C[C@H]1CCCN(CCCOc2ccc(-c3cc[n+]([O-])cc3)cc2)C1.O.O.O.O=C(O)C(O)C(O)C(=O)O [Example 7, (3S)-4-{4-[3-(3-methylpiperidin-1-yl)propoxy]phenyl}pyridine 1-oxide L-tartrate trihydrate] | 0.7 | 814 | 447 |  | 
6 | C[C@H]1CCCN(CCCOc2ccc(-c3cc[n+]([O-])cc3)cc2)C1.O=C(O)c1cc2ccccc2c(Cc2c(O)c(C(=O)O)cc3ccccc23)c1O [Example 8, (3S)-4-{4-[3-(3-methylpiperidin-1-yl)propoxy]phenyl}pyridine 1-oxide pamoate] | 0.9 | 952 | 587 |  | 
7 | C[C@H]1CCCN(CCCOc2ccc(-c3cc[n+]([O-])cc3)cc2)C1.O=C(O)/C=C/C(=O)O [Example 9, (3S)-4-{4-[3-(3-methylpiperidin-1-yl)propoxy]phenyl}pyridine 1-oxide fumarate] | 0.7 | 882 | 448 |  | 
8 | C[C@H]1CCCN(CCCOc2ccc(-c3cc[n+]([O-])cc3)cc2)C1.C[C@H]1CCCN(CCCOc2ccc(-c3cc[n+]([O-])cc3)cc2)C1.Cc1ccc(S(=O)(=O)O)cc1.Cc1ccc(S(=O)(=O)O)cc1.O.O.O.O.O [Example 10, (3S)-4-{4-[3-(3-methylpiperidin-1-yl)propoxy]phenyl}pyridine 1-oxide para-toluenesulfonate sestertihydrate (2.5)] |  |  |  | 1.2 | 
9 | CCO.C[C@H]1CCCN(CCCOc2ccc(-c3cc[n+]([O-])cc3)cc2)C1.C[C@H]1CCCN(CCCOc2ccc(-c3cc[n+]([O-])cc3)cc2)C1.O.O.O=S(=O)(O)c1cccc2c(S(=O)(=O)O)cccc12.O=S(=O)(O)c1cccc2c(S(=O)(=O)O)cccc12 [Example 11, (3S)-4-{4-[3-(3-methylpiperidin-1-yl)propoxy]phenyl}pyridine 1-oxide 1,5-naphtalenedisulfonate monohydrate hemiethanolate] |  |  |  | 0.7 | 
10 | C[C@H]1CCCN(CCCOc2ccc(-c3cc[n+]([O-])cc3)cc2)C1.O=P(O)(O)O [Example 12, (3S)-4-{4-[3-(3-methylpiperidin-1-yl)propoxy]phenyl}pyridine 1-oxide phosphate] | 0.6 | 630 | 350 |  | 
11 | Br.C[C@H]1CCCN(CCCOc2ccc(-c3cc[n+]([O-])cc3)cc2)C1 [Example 13, (3S)-4-{4-[3-(3-methylpiperidin-1-yl)propoxy]phenyl}pyridine 1-oxide bromhydrate] |  |  |  | 0.6 | 
12 | C[C@H]1CCCN(CCCOc2ccc(-c3cc[n+]([O-])cc3)cc2)C1.O=S(=O)(O)O [Example 15, (3S)-4-{4-[3-(3-methylpiperidin-1-yl)propoxy]phenyl}pyridine 1-oxide sulfate] | 0.8 | 639 | 466 |  | 
13 | Br.Br.C[C@H]1CCCN(CCCOc2ccc(-c3cc[n+]([O-])cc3)cc2)C1 [Example 16, (3S)-4-{4-[3-(3-methylpiperidin-1-yl)propoxy]phenyl}pyridine 1-oxide dibromhydrate] |  |  |  | 0.6 | 
14 | C[C@H]1CCCN(CCCOc2ccc(-c3cc[n+]([O-])cc3)cc2)C1.O.O=C(O)c1ccc2ccccc2c1O [Example 19, (3S)-4-{4-[3-(3-methylpiperidin-1-yl)propoxy]phenyl}pyridine 1-oxide 1-hydroxy-2-naphtoate monohydrate] |  |  |  | 0.6 | 
15 | C[C@H]1CCCN(CCCOc2ccc(-c3cc[n+]([O-])cc3)cc2)C1.O=C(O)c1cc2ccccc2cc1O [Example 20, (3S)-4-{4-[3-(3-methylpiperidin-1-yl)propoxy]phenyl}pyridine 1-oxide 3-hydroxy-2-naphtoate] |  |  |  | 0.6 | 
16 | [11CH3]NC(=O)c1ccc(Oc2ccc3c(c2)CCN(C2CCC2)CC3)nc1 [[^11C]GSK189254] |  |  |  |  | brain penetration [8]: good brain penetration; terminal half-life [8]: 1.6 ± 0.4 h; affinity for the histamine H3 receptor [9]: high affinity
17 | (3S)-4-{4-[3-(3-methylpiperidin-1-yl)propoxy]phenyl}pyridine 1-oxide 5-sulfosalicylate [Example 18] | 0.6 | 513 | 400 |  | 
18 | (3S)-4-{4-[3-(3-methylpiperidin-1-yl)propoxy]phenyl}pyridine 1-oxide orotate dihydrate [Example 17] | 0.6 | 529 | 389 |  | 
19 | (3S)-4-{4-[3-(3-methylpiperidin-1-yl)propoxy]phenyl}pyridine 1-oxide sesquiglycolate monohydrate [Example 21] | 0.6 | 484 | 348 |  | 
